Columns and labels:
[1] = Half life in dog plasma at 5 mg/kg; assay type: ADME, organism-based, Canis lupus familiaris; parameters: dose 5 mg/kg
[2] = Half life in rat plasma at 5 mg/kg; assay type: ADME, organism-based; parameters: dose 5 mg/kg
[3] = Half life in human plasma at 5 mg/kg; assay type: ADME, organism-based; parameters: dose 5 mg/kg
[4] = Elimination half life in iv dosed rat plasma; assay type: ADME, organism-based; conditions: read-out: beta t1/2 (converted)
[5] = Elimination half life in iv dosed dog plasma; assay type: ADME, organism-based, Canis lupus familiaris; conditions: read-out: beta t1/2 (converted)
[6] = Dissociation constant, pKa of the compound; assay type: physicochemical

Row | half-life [4] [min] | half-life [5] [days] | pKa [6] | SMILES | half-life [1] [days] | half-life [2] [min] | half-life [3] [min]
1 |  |  |  | Cc1cc(Cl)ccc1OCC(=O)O [METAXON] | 2.62 | 360 | 660
2 |  |  |  | O=C(O)COc1ccc(Cl)cc1Cl [2,4-DICHLOROPHENOXYACETIC ACID] | 3.83 | < 60 | 720
3 | 336 | 6.58 |  | CCOC(=O)C1=CCCC[C@H]1S(=O)(=O)N[14c]1[14cH][14cH][14c](F)[14cH][14c]1Cl |  |  | 
4 |  |  | 2.4 | Nc1ccc(OS(=O)(=O)O)cc1Cl |  |  | 
